From article PMC5635026, “Homo-PROTACs: bivalent small-molecule dimerizers of the VHL E3 ubiquitin ligase to induce self-degradation” (Nature Communications, 2017)
Where “and” joins values, the source holds several entries; their conditions need not be identical. Equal values may be shown once.

Columns and labels:
Dermcidin (DCD) = test: TMT MS proteomics in HeLa cells, DCD abundance; assay type: cell-based, Homo sapiens; conditions: 1 µM, 10 h, two replicates
Protocol: (§1) MS proteomics. Sample preparation. HeLa cells were seeded at 5 × 10^6 on a 10 cm plate 16 h before treatment. […] Cells were incubated at 37 °C and 5% CO2 for 10 h before harvesting. Cells were placed on ice and medium was removed and cells were washed twice with cold PBS. Cells were lysed in 0.5 ml of 100 mM Tris pH 8.0, 4% (w/v) SDS supplemented with protease inhibitor cocktail (Roche). The lysate was pulse sonicated briefly and then centrifuged at 17,000 × g for 15 min at 4 °C. The supernatant fraction of cell extract was snap-frozen in liquid nitrogen and stored in −80 °C freezer. Further sample processing, digestion, desalting, labeling and fractionation were performed as previously described.
(§2) nLC-MS/MS analysis. The TMT 10plex fractions were first analyzed as previously described. Briefly, the TMT 10plex fractions were analyzed sequentially on a Q Exactive HF Hybrid Quadrupole-Orbitrap Mass Spectrometer (Thermo Scientific) coupled to an UltiMate 3000 RSLCnano UHPLC system (Thermo Scientific) and EasySpray column (75 μm × 50 cm, PepMap RSLC C18 column, 2 μm, 100 Å, Thermo Scientific). The MS2 isolation window was set to 0.4 Da and the resolution set at 120,000. MS2 resolution was set at 60,000. The AGC targets for MS1 and MS2 were set at 3e^6 ions and 1e5 ions, respectively. The normalized collision energy was set at 32%. […] After the first analysis, the TMT labeled fractions were re-analyzed on the Q-Exactive HF using the same instrument settings and a target list generated from a theoretical trypsin digest of VHL. […] After the second analysis, two fractions were further analyzed using a targeted SIM/ddMS2 method on the Q-Exactive HF. […]
(§3) Peptide and protein identification. All the raw MS data files from the three analyses were merged and searched against the Uniprot-sprot-Trembl-Human-Canonical database by Maxquant software 1.5.3.30 for protein identification and TMT reporter ion quantitation. […] Quantified proteins were filtered if the absolute fold-change difference between the two DMSO replicates was ≥ 1.5.

HeLa cells = test: Isobaric tagging (TMT) MS proteomics in HeLa cells, proteome-wide degradation; assay type: cell-based, Human; conditions: 1 µM for 10 h, compared to DMSO or VHL inhibitor treatment
Protocol: as §1, §2, §3

pVHL19 = pVHL19 (Homo sapiens, UniProt P40337); test: Isothermal titration calorimetry (ITC) against VCB complex with short VHL isoform (V19CB); assay type: binding; set-up: made in house; conditions: for ΔG / ΔH / −TΔS / Kd / n: 25 °C; for ΔG / ΔH / −TΔS / α: pVHL19; for Kd / n: pVHL19 (V19CB); for n: stoichiometry of binding; for α: avidity / cooperativity compared to VH032, ITC
pVHL19, sequence (P40337 54-213): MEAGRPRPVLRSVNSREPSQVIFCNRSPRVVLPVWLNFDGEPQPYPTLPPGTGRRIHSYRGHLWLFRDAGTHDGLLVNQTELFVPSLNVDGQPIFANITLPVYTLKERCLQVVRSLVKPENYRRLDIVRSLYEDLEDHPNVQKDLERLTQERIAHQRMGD
pVHL19, sequence (Q15369 17-112 partner limits assumed): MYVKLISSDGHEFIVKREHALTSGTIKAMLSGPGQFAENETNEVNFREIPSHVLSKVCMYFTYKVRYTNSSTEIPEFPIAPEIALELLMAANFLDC
pVHL19, sequence (Q15370 1-104 partner limits assumed): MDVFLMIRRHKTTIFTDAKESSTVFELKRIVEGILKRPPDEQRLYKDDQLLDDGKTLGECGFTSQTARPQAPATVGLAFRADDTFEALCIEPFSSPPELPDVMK
Protocol: Protein expression and purification. Human proteins VHL (UniProt accession number: P40337), ElonginC (Q15369), and ElonginB (Q15370) were used for all protein expression. The short-isoform-containing VCB complex (V19CB) was expressed, purified and stored as described previously. For expression of the long-isoform-containing VCB complex (V30CB), N-terminally His6-tagged VHL (1–213), ElonginC (17–112) and ElonginB (1–104) were co-expressed in Escherichia coli BL21(DE3) at 20 °C for 18 h using 0.5 mM isopropyl β-D-1-thiogalactopyranoside (IPTG). E. coli cells were resuspended in binding buffer (50 mM HEPES, pH 8.0, 500 mM NaCl, 10 mM imidazole and 5 mM β-mercaptoethanol), lysed using a pressure cell homogenizer (Stansted Fluid Power), and lysate clarified by centrifugation. The supernatant was loaded onto a HisTrap FF affinity column (GE Healthcare) equilibrated with binding buffer, and bound protein was eluted using an imidazole gradient. The His6 tag was removed using thrombin protease (Sigma), and the untagged complex was dialyzed into binding buffer. V30CB was then loaded onto the HisTrap FF column a second time, allowing impurities to bind as the complex eluted without binding. The flow-through was dialyzed using a low-salt buffer (20 mM HEPES, pH 8.0, 25 mM NaCl and 1 mM DTT) and then loaded onto a Resource Q anion exchange column (GE Healthcare); bound protein was eluted across a linear NaCl gradient. V30CB was then additionally purified by size-exclusion chromatography using a Superdex-75 16/600 column (GE Healthcare) equilibrated with 20 mM HEPES, pH 7.5, 100 mM sodium chloride and 1 mM TCEP. All chromatography purification steps were performed using Äkta FPLC purification systems (GE Healthcare).
Isothermal titration calorimetry (ITC). Titrations were performed on an ITC200 micro-calorimeter (GE Healthcare). […] The final DMSO concentration was 0.15% v/v. VCB protein experiments were carried out in a buffer containing 20 mM Bis-tris propane, 150 mM NaCl, 1 mM TCEP, 0.15% v/v DMSO, pH 7.4. The titrations consisted of 19 injections of 2 µL compounds solution (150 µM, in the syringe) at a rate of 0.5 µl s^−1 at 120 s time intervals into the VCB protein solution (20 µM, in the cell). An initial injection of compound solution (0.4 µL) was made and discarded during data analysis. All experiments were performed at 25 °C, whilst stirring the syringe at 600 rpm. The data were fitted to a single binding site model to obtain the stoichiometry n, the dissociation constant K d and the enthalpy of binding ΔH using the Microcal LLC ITC200 Origin software provided by the manufacturer.

[1] = system: Putative glycerol kinase 5 (GK5); test: TMT MS proteomics in HeLa cells, GK5 abundance; assay type: cell-based, Homo sapiens; conditions: 1 µM, 10 h, two replicates
Protocol: as §1, §2, §3

[2] = system: Protein-glutamine gamma-glutamyltransferase E (TGM3); test: TMT MS proteomics in HeLa cells, TGM3 abundance; assay type: cell-based, Homo sapiens; conditions: 1 µM, 10 h, two replicates
Protocol: as §1, §2, §3

| ΔG (pVHL19; ITC) | ΔH (pVHL19; ITC) | −TΔS (pVHL19; ITC) | Kd (pVHL19; ITC) [µM] | n (pVHL19; ITC) | α (pVHL19) | avidity (cooperativity α) compared to VH032 (pVHL19; ITC, VCB) [fold] | Structure (SMILES) | average normalized ratio to DMSO, DCD (Dermcidin (DCD)) | proteins depleted amongst 6,450 detected proteins (HeLa cells) | average normalized ratio to DMSO, GK5 [1] | average normalized ratio to DMSO, TGM3 [2] |
| --- | --- | --- | --- | --- | --- | --- | --- | --- | --- | --- | --- |
| –10.2 ± 0.1 kcal mol^−1 | –9.4 ± 0.1 kcal mol^−1 | –0.8 ± 0.2 kcal mol^−1 | 0.032 ± 0.005 | 0.73 ± 0.01 | 6 |  | Cc1ncsc1-c1ccc(CNC(=O)[C@@H]2C[C@@H](O)CN2C(=O)[C@@H](NC(=O)COCCOCCOCCOCCOCC(=O)N[C@H](C(=O)N2C[C@H](O)C[C@H]2C(=O)NCc2ccc(-c3scnc3C)cc2)C(C)(C)C)C(C)(C)C)cc1 [CM10, N ^1 ,N ^17-bis((S)-1-((2S,4R)-4-hydroxy-2-((4-(4-methylthiazol-5-yl)benzyl)carbamoyl)pyrrolidin-1-yl)-3,3-dimethyl-1-oxobutan-2-yl)-3,6,9,12,15-pentaoxaheptadecanediamide] | 1.33 | no proteins other than Cul2 were substantially depleted | 1.22 | 0.99 |
| –10.3 ± 0.2 kcal mol^−1 | –6.9 ± 0.3 kcal mol^−1 | –3.5 ± 0.5 kcal mol^−1 | 0.041 ± 0.015 | 0.98 ± 0.09 | 4 |  | Cc1ncsc1-c1ccc(CNC(=O)[C@@H]2C[C@@H](O)CN2C(=O)[C@@H](NC(=O)COCCOCCOCCOCC(=O)N[C@H](C(=O)N2C[C@H](O)C[C@H]2C(=O)NCc2ccc(-c3scnc3C)cc2)C(C)(C)C)C(C)(C)C)cc1 [CM09, N ^1 ,N ^14-bis((S)-1-((2S,4R)-4-hydroxy-2-((4-(4-methylthiazol-5-yl)benzyl)carbamoyl)pyrrolidin-1-yl)-3,3-dimethyl-1-oxobutan-2-yl)-3,6,9,12-tetraoxatetradecanediamide] | 1.41 | no proteins other than Cul2 were substantially depleted | 1.05 | 1.74 |

| Structure (SMILES) | ΔG (pVHL19; ITC) | ΔH (pVHL19; ITC) | −TΔS (pVHL19; ITC) | Kd (pVHL19; ITC) [µM] | n (pVHL19; ITC) | α (pVHL19) | avidity (cooperativity α) compared to VH032 (pVHL19; ITC, VCB) [fold] | average normalized ratio to DMSO, DCD (Dermcidin (DCD)) | proteins depleted amongst 6,450 detected proteins (HeLa cells) | average normalized ratio to DMSO, GK5 [1] | average normalized ratio to DMSO, TGM3 [2] |
| --- | --- | --- | --- | --- | --- | --- | --- | --- | --- | --- | --- |
| Cc1ncsc1-c1ccc(CNC(=O)[C@@H]2C[C@@H](O)CN2C(=O)[C@@H](NC(=O)COCCOCCOCCOCCOCCOCC(=O)N[C@H](C(=O)N2C[C@H](O)C[C@H]2C(=O)NCc2ccc(-c3scnc3C)cc2)C(C)(C)C)C(C)(C)C)cc1 [CM11, N ^1 ,N ^20-bis((S)-1-((2S,4R)-4-hydroxy-2-((4-(4-methylthiazol-5-yl)benzyl)carbamoyl)pyrrolidin-1-yl)-3,3-dimethyl-1-oxobutan-2-yl)-3,6,9,12,15,18-hexaoxaicosanediamide] | –10.9 ± 0.1 kcal mol^−1 |  | 1.4 kcal/mol and 1.4 ± 0.8 kcal/mol | 0.011 ± 0.002 | 0.6 ± 0.01 | 18 | > 18 | 0.87 | no proteins other than Cul2 were substantially depleted | 0.94 | 0.72 |
